Measured values from patent US11891365B2, “3-alkyl-4-amido-bicyclic [4,5,0] hydroxamic acids as HDAC inhibitors” (Valo Health, Inc., priority 2015, dated 2024).

Target: T1, Full length human recombinant HDAC6 protein (Homo sapiens, UniProt Q9UBN7)
T1 sequence (Q9UBN7 1-1215): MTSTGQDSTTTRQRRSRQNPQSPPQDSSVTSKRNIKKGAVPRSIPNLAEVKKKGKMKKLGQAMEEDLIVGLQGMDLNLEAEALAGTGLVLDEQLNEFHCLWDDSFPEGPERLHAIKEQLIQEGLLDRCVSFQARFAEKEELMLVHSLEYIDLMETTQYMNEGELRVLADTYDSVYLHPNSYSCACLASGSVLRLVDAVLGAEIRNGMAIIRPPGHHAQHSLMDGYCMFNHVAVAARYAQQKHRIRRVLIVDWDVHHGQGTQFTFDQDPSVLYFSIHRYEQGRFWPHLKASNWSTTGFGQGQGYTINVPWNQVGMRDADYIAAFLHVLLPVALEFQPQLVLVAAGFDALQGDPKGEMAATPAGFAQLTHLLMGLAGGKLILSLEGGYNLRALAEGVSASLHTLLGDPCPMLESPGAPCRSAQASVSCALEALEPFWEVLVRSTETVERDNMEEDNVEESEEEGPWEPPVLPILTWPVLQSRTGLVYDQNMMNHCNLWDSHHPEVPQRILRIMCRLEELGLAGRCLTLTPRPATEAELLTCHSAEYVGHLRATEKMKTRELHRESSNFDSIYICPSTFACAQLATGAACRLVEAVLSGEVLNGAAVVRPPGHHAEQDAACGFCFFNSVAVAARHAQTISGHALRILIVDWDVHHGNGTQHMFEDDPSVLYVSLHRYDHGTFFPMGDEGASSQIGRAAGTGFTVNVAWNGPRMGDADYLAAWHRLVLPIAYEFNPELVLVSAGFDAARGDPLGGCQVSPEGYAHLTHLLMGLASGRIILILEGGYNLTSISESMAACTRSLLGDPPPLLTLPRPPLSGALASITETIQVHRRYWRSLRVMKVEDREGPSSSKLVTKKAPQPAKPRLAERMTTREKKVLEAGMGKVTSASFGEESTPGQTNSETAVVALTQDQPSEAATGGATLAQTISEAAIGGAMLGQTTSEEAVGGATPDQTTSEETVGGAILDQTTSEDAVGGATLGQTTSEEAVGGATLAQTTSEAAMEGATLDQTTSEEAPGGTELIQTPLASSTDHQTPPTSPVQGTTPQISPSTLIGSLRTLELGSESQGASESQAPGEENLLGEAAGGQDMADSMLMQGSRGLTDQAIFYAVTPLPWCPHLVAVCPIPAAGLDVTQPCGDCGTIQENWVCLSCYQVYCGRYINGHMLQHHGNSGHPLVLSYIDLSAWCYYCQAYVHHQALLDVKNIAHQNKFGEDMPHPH
Experiment: In vitro histone deacetylase assay: enzymatic HDAC6 electrophoretic mobility shift assay
Assay type: biochemical
Conditions: 1 nM enzyme, 2 μM peptide substrate RHKK(Ac)-NH2, 25° C., 12 concentrations; read-out: Inhibitory Concentration (IC50) Values against HDAC6, Activity Range
Experimental: The enzymatic HDAC6 assay was performed using electrophoretic mobility shift assay. […] The enzymatic reactions were assembled in 384 well plates in a total volume of 25 μL in a reaction buffer composing: 100 mM HEPES, pH7.5, 25 mM KCl, 0.1% bovine serum albumin, 0.01% Triton X-100, 1% DMSO (from compounds) 2 μM of the fluorescently labeled peptide substrate and enzyme. The enzyme was added at a final concentration of 1 nM. The peptide substrate RHKK(Ac)—NH2 was used. The compounds were tested at 12 concentrations spaced by 3× dilution intervals. Negative control samples ([…] in the absence of inhibitor) and positive control samples (100%-inhibition) were assembled in replicates of four in each assay plate. The reactions were incubated at 25° C. and quenched by the addition of 45 μL of termination buffer (100 mM HEPES, pH 7.5, 0.01% Triton X-100, 0.05% SDS).
The terminated assay plates were analyzed on LabChip® 3000 microfluidic electrophoresis instrument (Perkin Elmer/Caliper Life Sciences). The fluorescence intensity of the electrophoretically separated de-acetylated product and substrate peptide was measured. Activity in each sample was determined as the product to sum ratio (PSR): P/(S+P), where P is the peak height of the product peptide and S is the peak height of the substrate peptide. Percent inhibition (Pinh) is determined using the following equation:
Pinh=(PSR0%−PSRinh)/(PSR0%−PSR100%)*100, where PSRinh is the product sum ratio in the presence of inhibitor, PSR0% is the average product sum ration in the absence of inhibitor and PSR100% is the average product sum ratio in 100%-inhibition control samples. The IC50 values of inhibitors were determined by fitting the %-inhibition curves with 4 parameter dose-response model using XLfit 4 software.

IC50	SMILES
≤ 100 nM	O=C(NO)c1ccc2c(c1)OCCN(C(=O)CC1CC1)C2 [4-(2-cyclopropylacetyl)-N-hydroxy-2,3,4,5-tetrahydrobenzo[f][1,4]oxazepine-8-carboxamide]
> 500 nM	C[C@@H]1c2ccc(C(=O)NO)cc2OCCN1C(=O)C1CCOCC1 [(R)-N-hydroxy-5-methyl-4-(tetrahydro-2H-pyran-4-carbonyl)-2,3,4,5-tetrahydrobenzo[f][1,4]oxazepine-8-carboxamide]
> 500 nM	CC(C)C(O)(C(=O)N1CCOc2cc(C(=O)NO)ccc2C1)c1ccccc1 (stereo not shown) [N-hydroxy-4-(2-hydroxy-3-methyl-2-phenylbutanoyl)-2,3,4,5-tetrahydrobenzo[f][1,4]oxazepine-8-carboxamide]
≤ 100 nM	C[C@H]1COc2cc(C(=O)NO)ccc2CN1C=O [(S)-4-formyl-N-hydroxy-3-methyl-2,3,4,5-tetrahydrobenzo[f][1,4]oxazepine-8-carboxamide]
≤ 100 nM	COc1cccc(C2(C(=O)N3CCOc4cc(C(=O)NO)ccc4C3)CC2)c1 [N-hydroxy-4-(1-(3-methoxyphenyl)cyclopropane-1-carbonyl)-2,3,4,5-tetrahydrobenzo[f][1,4]oxazepine-8-carboxamide]
≤ 100 nM	COC1(C(=O)N2Cc3ccc(C(=O)NO)cc3OC[C@@H]2C)CC1 [(S)-N-hydroxy-4-(1-methoxycyclopropane-1-carbonyl)-3-methyl-2,3,4,5-tetrahydrobenzo[f][1,4]oxazepine-8-carboxamide]
> 500 nM	COc1ccc(C(=O)N2CCOc3ccc(C(=O)NO)cc3C2)cc1 [N-hydroxy-4-(4-methoxybenzoyl)-2,3,4,5-tetrahydrobenzo[f][1,4]oxazepine-7-carboxamide]
≤ 100 nM	O=C(NO)c1ccc2c(c1)OCCN(C(=O)c1ccccc1)C2 [4-benzoyl-N-hydroxy-2,3,4,5-tetrahydrobenzo[f][1,4]oxazepine-8-carboxamide]
≤ 100 nM	COc1ccc(C(=O)N2CCOc3cc(C(=O)NO)ccc3C2)cc1 [N-hydroxy-4-(4-methoxybenzoyl)-2,3,4,5-tetrahydrobenzo[f][1,4]oxazepine-8-carboxamide]
> 500 nM	O=C(NO)c1ccc2c(c1)OCCN(C(=O)C1(O)CC1)C2 [N-hydroxy-4-(1-hydroxycyclopropane-1-carbonyl)-2,3,4,5-tetrahydrobenzo[f][1,4]oxazepine-8-carboxamide]
100 to 500 nM	O=C(NO)c1ccc2c(c1)OCCN(C(=O)c1cc(C(F)(F)F)cc(C(F)(F)F)c1)C2 [4-(3,5-bis(trifluoromethyl)benzoyl)-N-hydroxy-2,3,4,5-tetrahydrobenzo[f][1,4]oxazepine-8-carboxamide]
≤ 100 nM	C[C@H]1COc2cc(C(=O)NO)ccc2CN1C(=O)C1(C)CCC1 [(S)-N-hydroxy-3-methyl-4-(1-methylcyclobutane-1-carbonyl)-2,3,4,5-tetrahydrobenzo[f][1,4]oxazepine-8-carboxamide]
100 to 500 nM	COC[C@@H]1CN(C=O)Cc2ccc(C(=O)NO)cc2O1 [(S)-4-formyl-N-hydroxy-2-(methoxymethyl)-2,3,4,5-tetrahydrobenzo[f][1,4]oxazepine-8-carboxamide]
≤ 100 nM	O=C(NO)c1ccc2c(c1)OCCN(C(=O)C1CCOCC1)C2 [N-hydroxy-4-(tetrahydro-2H-pyran-4-carbonyl)-2,3,4,5-tetrahydrobenzo[f][1,4]oxazepine-8-carboxamide]
≤ 100 nM	Cc1ccn(C(C)(C)C(=O)N2CCOc3cc(C(=O)NO)ccc3C2)n1 [N-hydroxy-4-(2-methyl-2-(3-methyl-1H-pyrazol-1-yl)propanoyl)-2,3,4,5-tetrahydrobenzo[f][1,4]oxazepine-8-carboxamide]
≤ 100 nM	C[C@H]1COc2cc(C(=O)NO)ccc2CN1C(=O)C1CCS(=O)(=O)C1 (stereo partly drawn) [(3S)-4-(1,1-dioxidotetrahydrothiophene-3-carbonyl)-N-hydroxy-3-methyl-2,3,4,5-tetrahydrobenzo[f][1,4]oxazepine-8-carboxamide]
≤ 100 nM	O=C(NO)c1ccc2c(c1)OCCN(C(=O)C1(c3cccc(C(F)(F)F)c3)CC1)C2 [N-hydroxy-4-(1-(3-(trifluoromethyl)phenyl)cyclopropane-1-carbonyl)-2,3,4,5-tetrahydrobenzo[f][1,4]oxazepine-8-carboxamide]
≤ 100 nM	COCC(C)(C)C(=O)N1CCOc2cc(C(=O)NO)ccc2C1 [N-hydroxy-4-(3-methoxy-2,2-dimethylpropanoyl)-2,3,4,5-tetrahydrobenzo[f][1,4]oxazepine-8-carboxamide]
100 to 500 nM	CN(C)C(=O)C1CN(C(=O)C2CCOCC2)Cc2ccc(C(=O)NO)cc2O1 (stereo not shown) [N8-hydroxy-N2,N2-dimethyl-4-(tetrahydro-2H-pyran-4-carbonyl)-2,3,4,5-tetrahydrobenzo[f][1,4]oxazepine-2,8-dicarboxamide]
≤ 100 nM	O=C(NO)c1ccc2c(c1)OCCN(C(=O)C1CC1c1ccccc1)C2 (stereo not shown) [N-hydroxy-4-(2-phenylcyclopropane-1-carbonyl)-2,3,4,5-tetrahydrobenzo[f][1,4]oxazepine-8-carboxamide]
≤ 100 nM	O=C(NO)c1ccc2c(c1)OCCN(C(=O)C1Cc3ccccc31)C2 (stereo not shown) [4-(bicyclo[4.2.0]octa-1(6),2,4-triene-7-carbonyl)-N-hydroxy-2,3,4,5-tetrahydrobenzo[f][1,4]oxazepine-8-carboxamide]
≤ 100 nM	C[C@H]1COc2cc(C(=O)NO)ccc2CN1C(=O)C1(C)CCOCC1 [(S)-N-hydroxy-3-methyl-4-(4-methyltetrahydro-2H-pyran-4-carbonyl)-2,3,4,5-tetrahydrobenzo[f][1,4]oxazepine-8-carboxamide]
≤ 100 nM	CC1(C(=O)N2CCOc3cc(C(=O)NO)ccc3C2)CCCC1 [N-hydroxy-4-(1-methylcyclopentane-1-carbonyl)-2,3,4,5-tetrahydrobenzo[f][1,4]oxazepine-8-carboxamide]
100 to 500 nM	CC(C)[C@@H]1CN(C(=O)C2(C)CCC2)Cc2ccc(C(=O)NO)cc2O1 [(R)-N-hydroxy-2-isopropyl-4-(1-methylcyclobutane-1-carbonyl)-2,3,4,5-tetrahydrobenzo[f][1,4]oxazepine-8-carboxamide]
≤ 100 nM	C[C@@H]1c2cc(C(=O)NO)ccc2OCCN1C(=O)C1CCOCC1 [(R)-N-hydroxy-5-methyl-4-(tetrahydro-2H-pyran-4-carbonyl)-2,3,4,5-tetrahydrobenzo[f][1,4]oxazepine-7-carboxamide]
100 to 500 nM	CC(=O)N1Cc2ccc(C(=O)NO)cc2OC[C@H]1C(C)C [(R)-4-acetyl-N-hydroxy-3-isopropyl-2,3,4,5-tetrahydrobenzo[f][1,4]oxazepine-8-carboxamide]
> 500 nM	COc1ccc2[nH]cc(CC(=O)N3CCOc4cc(C(=O)NO)ccc4C3)c2c1 [N-hydroxy-4-(2-(5-methoxy-1H-indol-3-yl)acetyl)-2,3,4,5-tetrahydrobenzo[f][1,4]oxazepine-8-carboxamide]

SMILES	IC50
CC(C)COc1ccc(C(C)(C)C(=O)N2CCOc3cc(C(=O)NO)ccc3C2)cc1 [N-hydroxy-4-(2-(4-isobutoxyphenyl)-2-methylpropanoyl)-2,3,4,5-tetrahydrobenzo[f][1,4]oxazepine-8-carboxamide]	100 to 500 nM
